For data set [1], the system named is splenic NK, B and T cells. The data set can be described thus: Immunosuppression effects in mouse splenic natural killer (NK) cells. It is filed as in vivo, Balb/C mice. The protocol:
Assay 8: Immunosuppression Effects in Mouse Splenic Natural Killer (NK) Cells Depletion of mouse splenic cells is an experimental model of immunosuppression (Kudlacz et al., Am. J. of Transplantation, 2004, 4, 51-57). […] Adult male Balb/C mice (12-14 weeks of age) from Harlan were used for the study. […] Spleens were harvested 1 or 2 h post last dose and crushed immediately for cell subtype staining. Prior to fixation, fluorophore-labelled antibodies for CD19 (FITC; B cells), CD3e (PE; pan T cells) and DX5 (APC; NK cells) were incubated with splenocyte samples from each animal to allow for simultaneous, multiple subtype % analysis on the flow cytometer. The number of total spleen cells for each animal was measured by Scepter™ 2.0 Handheld Automated Cell Counter. The absolute number of lymphocyte subtype population (e.g., splenic B, T and NK cells) was calculated from the percentage of each subtype times total spleen cells for each animal. A one way ANOVA, with Dunnett's post hoc test, was used to compare the splenic lymphocytes number of the vehicle and test compound groups. The a level was set at p<0.05. Data were presented as the mean±SEM for each group.

A short description of data set [2]: Determination of absorption in cannulated rats. It is filed as in vivo, Sprague Dawley rats. The following applies: rat, oral dose. The protocol: Drug levels were determined using an LC-MS-MS method. The resulting drug levels were used to compute the IV pharmacokinetic parameters: AUC IV and Dose IV. (2) Rats that have been cannulated in their portal vein (PV) and also in their jugular vein (JV) were dosed orally with test compound. Following oral dosing, plasma samples were typically collected from 0-6 hr from both the portal vein and the jugular vein. Drug levels were determined using an LC-MS-MS method. The resulting drug levels were used to compute the following pharmacokinetic parameters: AUC PO PV, AUC PO JV, and Dose PO. Using data derived from the above studies, the oral bioavailability F %, and the quantities Fa % and Fh % were calculated from the following formulas: F %=(AUC PO JV/AUC IV)*(Dose IV/Dose PO)*100 Fa %=(AUC PO PV/AUC IV)*(Dose IV/Dose PO)*100 Fh %=AUC PO JV/AUC PO PV where: AUC PO JV=Area under the curve following oral dose and plasma collected from the jugular vein AUC PO PV=Area under the curve following oral dose and plasma collected from the portal vein AUC IV=Area under the curve following an intravenous dose Dose IV=Intravenous Dose in mg/kg Dose PO=Oral Dose in mg/kg

Data set [3] deals with oxazolone-induced colitis. The data set can be described thus: Mouse model of oxazolone-induced colitis. The conditions noted are these: PO, 1, 3, and/or 10 mg/kg BID (doses up to 10 mg/kg BID). It is filed as in vivo, BALB/C mice. The protocol: Assay 7: Mouse Model of Oxazalone-Induced Colitis
Oxazolone-induced colitis is an experimental model that has a histological resemblance to human ulcerative colitis (Heller et al. Immunology, 2002, 17, 629-638). Adult BALB/C mice from Harlan were used in the assay. On day 1, animals were lightly anesthetized with isoflurane and the hairs between the shoulder were carefully removed before oxazolone (4%, 150 μL, 4:1 acetone:olive oil formulation) or vehicle solution was slowly applied for skin sensitization. Seven days after skin sensitization, the mice were fasted overnight, anesthetized with isoflurane inhalation, and a 1 mL syringe equipped with a 3.5-F catheter, filled with oxazolone solution, was inserted carefully about 4 cm into the colon of the mouse. Following insertion, 50 μL of the oxazolone solution (1%, 1:1 ethanol:water formulation) was injected very slowly (over 30 sec using an injection pump) into the colon. The catheter was removed and the mice were held vertically (head down) for 2 min to ensure that the entire oxazolone solution remained inside the colon. Drug treatment (PO, BID or TID) or vehicle was initiated a day prior to the oxazolone intrarectal (IR) challenge. Two-day post oxazolone intrarectal challenge, the Disease Activity Index (DAI) was assessed by treatment-blinded experimenters for each mouse according to the criteria score: stool consistency score (0, normal; 2, loose; 4, diarrhea), gross bleeding score (0, absence; 2, blood tinged; 4, presence), and weight loss score (0, none; 1, 1%-5%; 2, 5%-10^%; 3, 10%-20%; 4, more than 20%); DAI=average of (stool consistency score+gross bleeding score+weight loss score).
Selected compounds of the invention were tested in the assay. Efficacy in the model is evidenced by a decrease in DAI score as compared with the score from vehicle treated animals.

Data set [4] is described as follows: Pharmacokinetics in plasma and the GI tract in rats. The class given is in vivo, Sprague Dawley rats. The conditions noted are these: oral dosing in preclinical species. The protocol: Assay 6: Pharmacokinetics in Plasma and the GI Tract in Rats and Dogs A test compound was dosed to male Sprague Dawley rats (n=3) as described in Assay 5. […] At all time points, the plasma concentration was below the limit of quantitation of 0.001 μg/mL.

Data set [5] is described as follows: First in human study of safety, tolerability and pharmacokinetics in healthy subjects. The class given is in vivo. The following applies: by comparison to other orally administered compounds. The protocol: Assay 9: First in Human Study to Evaluate the Safety, Tolerability and Pharmacokinetics in Healthy Subjects
The compound of Example 1 was evaluated in a double-blinded, randomized, placebo-controlled, single ascending dose (SAD) and multiple ascending dose (MAD) study of safety, tolerability, and pharmacokinetics in healthy subjects. Pharmacokinetic samples were collected up to 72 hours post the final dose in both the SAD study (after the first dose) and MAD study (after 14 days of once-daily dosing). The SAD study enrolled 5 cohorts and the MAD study enrolled 4 cohorts totaling 72 subjects, of which 71 completed the dosing period.
Plasma pharmacokinetic (PK) parameters were determined by non-compartmental analysis using WinNonLin Version 6.4.0 (Pharsight, St Louis, Mo.). The plasma PK parameter presented here is:
Cmax: maximum concentration in plasma

For data set [6] the following is noted: 5% to 90% relative humidity, room temperature; listed as Crystalline 3-(1R,3s,5S)-3-((7-((5-methyl-H-pyrazol-3-yl)amino)-1,6-naphthyridi)). The protocol: A weighed sample was used and the humidity was lowest possible value (close to 0% RH) at the start of the analysis. The DMS analysis consisted of an initial drying step (0% RH) for 120 minutes, followed by two cycles of sorption and desorption with a scan rate of 5% RH/step over the humidity range of 5% RH to 90% RH. The DMS run was performed isothermally at 25° C.

The target in the next data set is TYK2 (Homo sapiens (Human), UniProt P29597). It is filed as biochemical. The protocol: (§1) Assay 1: Biochemical JAK and Off-Target Kinase Assays
Sequence of TYK2 (P29597 whole entry): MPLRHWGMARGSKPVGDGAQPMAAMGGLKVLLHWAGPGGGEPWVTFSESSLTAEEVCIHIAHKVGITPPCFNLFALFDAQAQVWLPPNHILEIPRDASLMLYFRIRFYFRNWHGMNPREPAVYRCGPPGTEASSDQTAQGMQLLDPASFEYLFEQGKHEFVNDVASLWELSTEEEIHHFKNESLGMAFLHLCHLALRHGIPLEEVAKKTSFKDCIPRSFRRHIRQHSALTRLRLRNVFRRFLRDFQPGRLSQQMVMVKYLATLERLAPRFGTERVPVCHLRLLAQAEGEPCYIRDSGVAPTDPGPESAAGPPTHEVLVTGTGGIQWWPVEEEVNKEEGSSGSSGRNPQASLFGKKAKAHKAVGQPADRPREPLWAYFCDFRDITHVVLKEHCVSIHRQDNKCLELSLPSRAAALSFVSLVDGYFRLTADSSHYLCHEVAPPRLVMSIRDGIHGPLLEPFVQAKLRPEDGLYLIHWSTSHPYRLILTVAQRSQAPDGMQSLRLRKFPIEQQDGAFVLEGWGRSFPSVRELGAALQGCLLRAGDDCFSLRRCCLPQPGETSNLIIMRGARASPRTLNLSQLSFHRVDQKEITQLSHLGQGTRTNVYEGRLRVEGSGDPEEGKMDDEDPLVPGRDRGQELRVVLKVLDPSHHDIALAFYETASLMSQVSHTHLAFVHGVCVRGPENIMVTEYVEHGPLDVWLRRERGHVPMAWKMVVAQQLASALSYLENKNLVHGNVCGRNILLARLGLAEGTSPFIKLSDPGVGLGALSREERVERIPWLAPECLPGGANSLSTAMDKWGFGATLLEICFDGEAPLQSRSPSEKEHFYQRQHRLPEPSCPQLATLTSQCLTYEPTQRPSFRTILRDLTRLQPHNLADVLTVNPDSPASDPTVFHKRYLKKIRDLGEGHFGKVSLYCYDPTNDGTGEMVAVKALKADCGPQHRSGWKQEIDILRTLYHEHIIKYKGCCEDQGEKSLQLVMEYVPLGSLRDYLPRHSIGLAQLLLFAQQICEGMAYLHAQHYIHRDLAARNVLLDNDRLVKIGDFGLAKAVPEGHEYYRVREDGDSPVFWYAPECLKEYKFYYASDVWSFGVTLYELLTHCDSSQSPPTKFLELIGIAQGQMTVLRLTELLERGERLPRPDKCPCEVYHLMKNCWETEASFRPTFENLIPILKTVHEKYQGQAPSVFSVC
(§2) A panel of four LanthaScreen JAK biochemical assays (JAK1, 2, 3 and Tyk2) were carried in a common kinase reaction buffer (50 mM HEPES, pH 7.5, 0.01% Brij-35, 10 mM MgCl2, and 1 mM EGTA). Recombinant GST-tagged JAK enzymes and a GFP-tagged STAT1 peptide substrate were obtained from Life Technologies.
(§3) Serially diluted compounds were pre-incubated with each of the four JAK enzymes and the substrate in white 384-well microplates (Corning) at ambient temperature for 1 h. ATP was subsequently added to initiate the kinase reactions in 10 μL total volume, with 1% DMSO. […] Kinase reactions were allowed to proceed for 1 hour at ambient temperature before a 10 μL preparation of EDTA (10 mM final concentration) and Tb-anti-pSTAT1 (pTyr701) antibody (Life Technologies, 2 nM final concentration) in TR-FRET dilution buffer (Life Technologies) was added. The plates were allowed to incubate at ambient temperature for 1 h before being read on the EnVision reader (Perkin Elmer).
(§4) Results were expressed as pIC50 (negative logarithm of IC50) and subsequently converted to pKi (negative logarithm of dissociation constant, Ki) using the Cheng-Prusoff equation.

Data set [7] deals with IL-4 induced STAT6 phosphorylation in THP-1 human monocytic cells. The following applies: THP-1 cells, IL-4 induced STAT6 phosphorylation.
Another data set deals with JAK1 (Homo sapiens (Human), UniProt P23458). The class given is biochemical. The protocol:
as §1, §2, §3, §4

The next data set deals with JAK2 (Homo sapiens (Human), UniProt O60674). It is filed as biochemical. The protocol: as §1, §2, §3, §4
Sequence of JAK2 (O60674 whole entry): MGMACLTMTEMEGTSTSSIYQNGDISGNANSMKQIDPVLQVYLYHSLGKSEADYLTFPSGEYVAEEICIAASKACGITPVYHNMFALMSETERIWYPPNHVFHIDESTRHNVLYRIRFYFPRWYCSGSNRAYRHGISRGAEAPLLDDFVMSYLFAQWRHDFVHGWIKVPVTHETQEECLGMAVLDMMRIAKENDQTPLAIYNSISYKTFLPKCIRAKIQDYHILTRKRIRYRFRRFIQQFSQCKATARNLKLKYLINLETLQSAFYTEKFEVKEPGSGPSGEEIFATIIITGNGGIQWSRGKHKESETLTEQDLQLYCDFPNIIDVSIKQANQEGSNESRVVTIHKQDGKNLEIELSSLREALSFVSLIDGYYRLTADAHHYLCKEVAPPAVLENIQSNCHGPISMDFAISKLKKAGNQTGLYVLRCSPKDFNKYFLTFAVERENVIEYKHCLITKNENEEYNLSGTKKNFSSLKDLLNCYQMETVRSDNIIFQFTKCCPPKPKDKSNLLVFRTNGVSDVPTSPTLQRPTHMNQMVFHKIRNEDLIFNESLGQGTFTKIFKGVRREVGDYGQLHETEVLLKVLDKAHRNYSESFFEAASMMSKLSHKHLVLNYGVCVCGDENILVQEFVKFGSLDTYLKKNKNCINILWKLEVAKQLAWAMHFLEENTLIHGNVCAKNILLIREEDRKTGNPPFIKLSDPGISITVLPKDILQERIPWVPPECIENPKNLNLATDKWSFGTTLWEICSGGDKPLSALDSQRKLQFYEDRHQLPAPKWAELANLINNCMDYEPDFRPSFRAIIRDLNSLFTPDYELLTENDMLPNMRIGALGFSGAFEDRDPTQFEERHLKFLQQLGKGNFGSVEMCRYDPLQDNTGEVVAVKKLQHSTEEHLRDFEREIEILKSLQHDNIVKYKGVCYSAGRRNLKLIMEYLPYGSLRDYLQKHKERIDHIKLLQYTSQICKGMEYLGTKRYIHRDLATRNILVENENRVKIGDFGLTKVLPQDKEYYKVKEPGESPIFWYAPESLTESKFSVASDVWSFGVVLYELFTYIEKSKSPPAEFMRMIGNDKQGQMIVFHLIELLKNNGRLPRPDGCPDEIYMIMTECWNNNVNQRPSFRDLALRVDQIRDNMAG
Data set [8] concerns IL-13 induced STAT6 phosphorylation in BEAS-2B human lung epithelial cells. The following applies: BEAS-2B cells, IL-13 induced STAT6 phosphorylation.

Sequence of JAK1 (P23458 whole entry): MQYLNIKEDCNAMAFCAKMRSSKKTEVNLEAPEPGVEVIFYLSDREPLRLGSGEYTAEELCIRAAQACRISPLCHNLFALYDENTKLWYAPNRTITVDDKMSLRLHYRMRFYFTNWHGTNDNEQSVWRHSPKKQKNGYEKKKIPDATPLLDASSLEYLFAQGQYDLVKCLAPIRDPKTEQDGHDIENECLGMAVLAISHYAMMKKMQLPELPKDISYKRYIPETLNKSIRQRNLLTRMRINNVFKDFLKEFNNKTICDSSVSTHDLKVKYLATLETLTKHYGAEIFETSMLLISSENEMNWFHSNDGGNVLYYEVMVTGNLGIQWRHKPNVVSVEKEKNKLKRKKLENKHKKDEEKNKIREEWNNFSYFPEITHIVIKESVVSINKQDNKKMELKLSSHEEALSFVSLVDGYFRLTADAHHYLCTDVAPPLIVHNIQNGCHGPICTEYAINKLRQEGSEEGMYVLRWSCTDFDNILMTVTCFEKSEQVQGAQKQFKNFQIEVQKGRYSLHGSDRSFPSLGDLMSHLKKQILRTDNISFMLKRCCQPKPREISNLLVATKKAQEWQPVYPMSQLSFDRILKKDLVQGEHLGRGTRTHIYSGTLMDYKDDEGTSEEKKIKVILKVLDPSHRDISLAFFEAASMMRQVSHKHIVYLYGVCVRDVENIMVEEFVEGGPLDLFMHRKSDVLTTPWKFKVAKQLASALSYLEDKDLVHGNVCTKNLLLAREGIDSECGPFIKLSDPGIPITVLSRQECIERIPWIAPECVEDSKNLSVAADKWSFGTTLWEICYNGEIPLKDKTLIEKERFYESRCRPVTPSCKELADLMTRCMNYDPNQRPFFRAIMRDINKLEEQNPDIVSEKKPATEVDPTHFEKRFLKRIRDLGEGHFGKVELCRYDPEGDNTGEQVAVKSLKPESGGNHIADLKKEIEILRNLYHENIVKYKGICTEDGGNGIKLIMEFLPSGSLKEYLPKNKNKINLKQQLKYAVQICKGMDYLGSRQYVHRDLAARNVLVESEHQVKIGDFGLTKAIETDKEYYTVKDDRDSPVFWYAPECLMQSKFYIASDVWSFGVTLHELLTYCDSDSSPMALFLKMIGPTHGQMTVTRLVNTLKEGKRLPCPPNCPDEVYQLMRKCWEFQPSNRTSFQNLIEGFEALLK

In the case of `C[C@@H]1CCN(C(=O)CC#N)C[C@@H]1N(C)c1ncnc2[nH]ccc12` [tofacitinib, reference compound], the “B and T cell populations (spleen)” value in [1] (mouse, PO BID three days) is recorded as “No treatment effect”.
Take `Cc1cc(Nc2cc3nc(CO)ccc3c(N[C@@H]3C[C@H]4CC[C@@H](C3)N4C(=O)OCC(C)C)n2)n[nH]1` [Example 12, Isobutyl (1R,3s,5S)-3-((2-(hydroxymethyl)-7-((5-methyl-1H-pyrazol-3-yl)amino)-1,6-naphthyridin-5-yl)amino)-8-azabicyclo[3.2.1]octane-8-carboxylate]: the “absorption at the portal vein (Fa %)” value in [2] is given as “less than 10%”. Further, in data set [3], the “DAI score as compared with vehicle treated animals” value is reported as “statistically significant decrease”.
Consider `Cc1cc(Nc2cc3ncccc3c(N[C@@H]3C[C@H]4CC[C@@H](C3)N4CCC#N)n2)n[nH]1` [Example 1, 3-((1R,3s,5S)-3-((7-((5-methyl-1H-pyrazol-3-yl)amino)-1,6-naphthyridin-5-yl)amino)-8-azabicyclo[3.2.1]octan-8-yl)propanenitrile], for which the “exposure throughout the gastrointestinal tract versus exposure in plasma” value in [4] was “significantly higher exposure”. In addition, in data set [3], the “DAI score as compared with vehicle treated animals” value was “statistically significant decrease”. The effect of immunosuppression entry in data set [1] (mice, same dose required for efficacy in the oxazolone model) is “minimal effect”. Further, the “B and T cell populations (spleen)” value in data set [1] (mouse, PO BID three days) is “No treatment effect”. The “splenic NK cell counts” value in [1] (mouse, PO BID three days, tofacitinib 30 mg/kg, Example 1 up to 100 mg/kg) is “unaffected”. For the same compound, in [5], the oral bioavailability result is listed as “very low”.
On to `Cc1cc(Nc2cc3ncccc3c(N[C@@H]3C[C@H]4CC[C@@H](C3)N4CCC#N)n2)n[nH]1` [Form I, 3-((1R,3s,5S)-3-((7-((5-methyl-1H-pyrazol-3-yl)amino)-1,6-naphthyridin-5-yl)amino)-8-azabicyclo[3.2.1]octan-8-yl)propanenitrile], for which the “weight gain / weight change (moisture sorption)” value in data set [6] is “less than 0.15%”.
Regarding `Cc1cc(Nc2cc3ncccc3c(N[C@@H]3C[C@H]4CCC[C@@H](C3)N4S(=O)(=O)c3cccnc3)n2)n[nH]1` [Example 8, N^7-(5-methyl-1H-pyrazol-3-yl)-N-((1R,3s,5S)-9-(pyridin-3-ylsulfonyl)-9-azabicyclo[3.3.1]nonan-3-yl)-1,6-naphthyridine-5,7-diamine], in data set [2], the “absorption at the portal vein (Fa %)” value is reported as “less than 10%”. The “DAI score as compared with vehicle treated animals” value in data set [3] is recorded as “statistically significant decrease”.
On to `Cc1cc(Nc2cc3ncccc3c(N[C@@H]3C[C@H]4CC[C@@H](C3)N4Cc3cccc(O)c3)n2)n[nH]1` [Example 1-19], for which, on TYK2, the “Tyk 2 (pKi)” value is “C (C represents a pKi value between 7 and 9 (Ki between 100 nM and 1 nM))”. The “THP-1 IL4 pIC50” value in [7] was “B (B represents a pEC50 value between 6.7 and 7.5 (EC50 between 200 nM and 32 nM))”.
For `Cc1cc(Nc2cc3ncccc3c(N[C@@H]3C[C@H]4CCC[C@@H](C3)N4CC(F)(F)F)n2)n[nH]1` [Example 1-45], the “JAK 1 (pKi)” value on JAK1 is “B (B represents a pKi value between 9 and 10 (Ki between 1 nM and 0.1 nM))”. Besides, the “JAK 2 (pKi)” value on JAK2 is “B (B represents a pKi value between 9 and 10 (Ki between 1 nM and 0.1 nM))”. Further, the “Tyk 2 (pKi)” value at TYK2 was “B (B represents a pKi value between 9 and 10 (Ki between 1 nM and 0.1 nM))”.
In the case of `Cc1cc(Nc2cc3ncccc3c(N[C@@H]3C[C@H]4CC[C@@H](C3)N4CC(F)(F)F)n2)n[nH]1` [Example 1-14], on JAK1, the “JAK 1 (pKi)” value was “B (B represents a pKi value between 9 and 10 (Ki between 1 nM and 0.1 nM))”. Moreover, the “JAK 2 (pKi)” value on JAK2 is “B (B represents a pKi value between 9 and 10 (Ki between 1 nM and 0.1 nM))”. For the same compound, the “Tyk 2 (pKi)” value at TYK2 was “B (B represents a pKi value between 9 and 10 (Ki between 1 nM and 0.1 nM))”. In addition, the “BEAS2B pIC50” value in data set [8] is “A (A represents a pEC50 value ≥7.5 (EC50≤32 nM))”. For the same compound, the “THP-1 IL4 pIC50” value in data set [7] is “A (A represents a pEC50 value ≥7.5 (EC50≤32 nM))”.
